# Experimental data taken from article PMC4521150, “Discovery of Novel Inhibitors and Fluorescent Probe Targeting NAMPT” (Scientific Reports, 2015).
# Molecular target: T1, recombinant human NAMPT (Homo sapiens, UniProt P43490)
# T1 construct: His tag (N); made in house; host or cells: E. coli BL21-CodonPlus (DE3)-RIL, pET21a+ vector
# Experiment: HTS / fixed-concentration NAMPT activity screen (fluorometric)
# Type: biochemical
# Details: 20 μM compound; analogues of the 46 non-fluorescent inhibitors
# Text: Using our previously established high throughput screening (HTS) platform and recombinant human NAMPT[14][15], we performed a HTS on a chemical library containing 30000 small-molecules (Chemdiv, CA, USA). Our HTS targeting NAMPT was developed based on a fluorometric method for NAMPT activity assay by measuring the fluorescence of nicotinamide mononucleotide (NMN) derivative resulting from the NAMPT enzymatic product NMN through simple chemical reactions (Fig. 1A). The 30000 compounds were dissolved with dimethyl sulfoxide (DMSO); most of compounds were soluble at 10 mM stock solution (94.1%), some compounds insoluble at 10 mM were soluble at 2.5 mM stock solution (4.4%), and the remaining compounds insoluble at 2.5 mM (1.5%) were diluted further during HTS experiments (Fig. 1B). To guarantee the quality of screening, S/N ratio, CV and Z’ factors were monitored throughout the screenings, and all three indices met the requirements of HTS (Fig. 1C–E). After a primary screen and a secondary screen of all compounds at 20 μM, 242 compounds were selected as the hits of NAMPT inhibitors (NAMPT activity < 40%), and the hit rate was ~0.8% (Fig. 1F). […] All these 55 compounds were not reported as NAMPT inhibitors previously. Among the 55 compounds, we noted 46 compounds were non-fluorescent and 9 compounds were fluorescent (Fig. 1F). These fluorescent and non-fluorescent compounds were further studied separately.
# HTS was performed using our previously reported method. 0.5 μl stock of each compound (1 mM DMSO stock) was transferred to a 96-well PCR plate for screening. In the primary screening, 5 ng NAMPT in 20 μl reaction buffer [0.4 mM phosphoribosylpyrophosphate (PRPP, Sigma), 2 mM ATP, 0.02% BSA, 2 mM DTT, 12 mM MgCl2 and 50 mM Tris-HCl (pH = 7.5)] was added into each well, the plate was incubated at 37 °C for 5 min, then 4.5 μl substrate of NAM was added to initiate the enzyme reaction, resulting in a final concentration of 2% DMSO, 2 μg/ml NAMPT, 0.2 μM NAM and 20 μM compound. After reacting at 37 °C for 15 min, the enzyme reaction was terminated by heating at 95 °C for 1 min and cooling in an ice bath. The product of NMN was detected through the following approach: after adding 10 μl 20% acetophenone in DMSO and 10 μl 2 M KOH into each well, the mixture was vortex-mixed and kept in ice bath for 2 min. Then 45 μl 88% formic acid was added and the mixture was incubated at 37 °C for 10 min. Finally, 85 μl mixtures in each well were transferred into a flat-bottom 96-well black plate (Greiner), and the fluorescence (F) was measured using a Tecan Infinity M200 plate reader (Tecan Group Ltd.) by setting the excitation and emission wavelength to 382 nm and 445 nm respectively. The last row of each 96-well plate includes six wells of background controls and six wells of reference controls. The relative enzyme activity (Activity%) regulated by specific compound was calculated according to equation (1):
# F0 was the averaged fluorescence of six background controls, representing zero activity from a simulated enzyme reaction with only NAMPT but no NAM and compound; F100% was the averaged fluorescence of six reference controls, representing 100% activity from intact enzyme reaction without compound perturbation.
# Compounds with Activity% less than 40% were considered as inhibitors and subjected to a secondary screen inhibition validation, in which another background control (FC0), a simulated enzyme reaction with NAMPT and compound but no NAM, was introduced to eliminate the direct and/or indirect influence from compound. At this stage, the Activity% was calculated according to equation (2): […]
# T1 sequence (P43490 whole entry): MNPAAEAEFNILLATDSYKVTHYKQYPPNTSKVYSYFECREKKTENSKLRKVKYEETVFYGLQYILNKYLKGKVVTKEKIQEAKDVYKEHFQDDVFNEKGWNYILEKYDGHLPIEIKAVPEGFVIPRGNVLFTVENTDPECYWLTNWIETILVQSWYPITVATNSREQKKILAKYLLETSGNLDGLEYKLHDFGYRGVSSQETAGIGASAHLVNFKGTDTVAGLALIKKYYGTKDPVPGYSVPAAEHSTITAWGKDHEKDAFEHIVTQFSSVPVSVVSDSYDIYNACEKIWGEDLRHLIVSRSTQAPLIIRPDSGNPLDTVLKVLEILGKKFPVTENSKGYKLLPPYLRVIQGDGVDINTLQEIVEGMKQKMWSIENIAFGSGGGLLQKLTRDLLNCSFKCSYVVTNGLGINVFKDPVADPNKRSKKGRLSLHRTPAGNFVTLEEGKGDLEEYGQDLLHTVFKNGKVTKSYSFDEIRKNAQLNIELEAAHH
row,Structure (SMILES),NAMPT inhibition activity at 20 μM
1,Cc1ccc(Cl)cc1NC(=O)CCCn1c(=O)c2cccn2c2cccnc21 [E524-1295],No (showed no NAMPT inhibition activity at 20 μM (NAMPT activity ≥40%))
2,O=C(COc1ccc(F)cc1)Nc1ccccc1C(=O)OCc1cc(=O)n2ccsc2n1 [G357-1695],No (showed no NAMPT inhibition activity at 20 μM (NAMPT activity ≥40%))
3,COc1cc(OC)c(NC(=O)CCCn2nc(C)c3sc4ccccc4c3c2=O)cc1Cl [E019-0951],No (showed no NAMPT inhibition activity at 20 μM (NAMPT activity ≥40%))
4,CC(=O)c1cccc(NC(=O)Cc2noc3ccccc23)c1 [E207-0513],No (showed no NAMPT inhibition activity at 20 μM (NAMPT activity ≥40%))
5,COc1ccc(Cl)cc1NC(=O)CCCn1c(=O)c2cccn2c2cccnc21 [E524-1372],No (showed no NAMPT inhibition activity at 20 μM (NAMPT activity ≥40%))
6,Cc1ccccc1OCc1ccc(-c2nc(C#N)c(NCc3cccnc3)o2)o1 [D301-0303],No (showed no NAMPT inhibition activity at 20 μM (NAMPT activity ≥40%))
7,Cc1ccc(NC(=O)CCCn2c(=O)c3cccn3c3cccnc32)c(Cl)c1 [E524-1338],No (showed no NAMPT inhibition activity at 20 μM (NAMPT activity ≥40%))
8,CCOc1ccc(CCNC(=O)c2ccc(Cn3c(=O)c4cccn4c4cccnc43)cc2)cc1 [E524-1767],No (showed no NAMPT inhibition activity at 20 μM (NAMPT activity ≥40%))
9,Cc1ccccc1CNC(=O)Cn1c(=O)c2cccn2c2cccnc21 [E524-0298],No (showed no NAMPT inhibition activity at 20 μM (NAMPT activity ≥40%))
10,O=C(NCc1ccccc1Cl)c1ccc(Cn2c(=O)c3cccn3c3cccnc32)cc1 [E524-1573],Yes
11,CC(C)OCCCNC(=O)c1ccc(Cn2c(=O)c3cccn3c3cccnc32)cc1 [E524-1673],No (showed no NAMPT inhibition activity at 20 μM (NAMPT activity ≥40%))
12,CCOCCCNC(=O)c1ccc(Cn2c(=O)c3cccn3c3cccnc32)cc1 [E524-1662],No (showed no NAMPT inhibition activity at 20 μM (NAMPT activity ≥40%))
13,CCC(C)NC(=O)c1ccc(Cn2c(=O)c3cccn3c3cccnc32)cc1 (stereo not shown) [E524-1568],No (showed no NAMPT inhibition activity at 20 μM (NAMPT activity ≥40%))
14,CCCNC(=O)c1ccc(Cn2c(=O)c3cccn3c3cccnc32)cc1 [E524-1613],No (showed no NAMPT inhibition activity at 20 μM (NAMPT activity ≥40%))
15,COc1ccc(OC)c(CNC(=O)CCCn2c(=O)c3cccn3c3cccnc32)c1 [C799-0387],No (showed no NAMPT inhibition activity at 20 μM (NAMPT activity ≥40%))
16,COc1cccc(CNC(=O)CCCn2c(=O)c3cccn3c3cccnc32)c1OC [E524-1489],No (showed no NAMPT inhibition activity at 20 μM (NAMPT activity ≥40%))
17,Cc1ccccc1CNC(=O)CCCn1nc(C)c2sc3ccccc3c2c1=O [E019-1139],No (showed no NAMPT inhibition activity at 20 μM (NAMPT activity ≥40%))
18,CCOc1ccc(CCNC(=O)CCCn2c(=O)c3cccn3c3cccnc32)cc1 [E524-1469],No (showed no NAMPT inhibition activity at 20 μM (NAMPT activity ≥40%))
19,O=C(Cn1c(=O)c2cccn2c2cccnc21)NCc1ccccc1F [E524-0299],No (showed no NAMPT inhibition activity at 20 μM (NAMPT activity ≥40%))
20,Cc1cccc(OCc2ccc(-c3nc(C#N)c(NCc4cccnc4)o3)o2)c1 [D301-0252],No (showed no NAMPT inhibition activity at 20 μM (NAMPT activity ≥40%))

row,Structure (SMILES),NAMPT inhibition activity at 20 μM
1,CC(C)NC(=O)c1ccc(Cn2c(=O)c3cccn3c3cccnc32)cc1 [E524-1612],No (showed no NAMPT inhibition activity at 20 μM (NAMPT activity ≥40%))
2,Cc1ccc(OCc2ccc(-c3nc(C#N)c(NCc4cccnc4)o3)o2)cc1 [D301-0100],No (showed no NAMPT inhibition activity at 20 μM (NAMPT activity ≥40%))
3,COc1ccc(CCNC(=O)c2ccc(Cn3c(=O)c4cccn4c4cccnc43)cc2)cc1OC [E524-1586],No (showed no NAMPT inhibition activity at 20 μM (NAMPT activity ≥40%))
4,Cc1nn(CCCC(=O)Nc2ccccc2C(F)(F)F)c(=O)c2c1sc1ccccc12 [E019-0923],No (showed no NAMPT inhibition activity at 20 μM (NAMPT activity ≥40%))
5,COc1ccc(CNC(=O)Cn2c(=O)c3cccn3c3cccnc32)cc1 [E524-0113],No (showed no NAMPT inhibition activity at 20 μM (NAMPT activity ≥40%))
6,CCOc1ccccc1NC(=O)NCc1noc2ccc(C)cc12 [E569-0079],No (showed no NAMPT inhibition activity at 20 μM (NAMPT activity ≥40%))
7,COc1ccc(OC)c(CNC(=O)NCc2noc3ccc(C)cc23)c1 [E569-0193],No (showed no NAMPT inhibition activity at 20 μM (NAMPT activity ≥40%))
8,O=C(Cn1c(=O)c2cccn2c2cccnc21)NCc1cccc(F)c1 [E524-0302],No (showed no NAMPT inhibition activity at 20 μM (NAMPT activity ≥40%))
9,Cc1ccc2onc(CNC(=O)Nc3ccccc3C#N)c2c1 [E569-0217],No (showed no NAMPT inhibition activity at 20 μM (NAMPT activity ≥40%))
10,Cc1cc(C)c(NC(=O)C(C)n2nc(C)c3sc4ccccc4c3c2=O)c(C)c1 (stereo not shown) [E019-0435],No (showed no NAMPT inhibition activity at 20 μM (NAMPT activity ≥40%))
11,Cc1c(Cl)cccc1NC(=O)Cn1nc(C)c2sc3ccccc3c2c1=O [E019-0120],No (showed no NAMPT inhibition activity at 20 μM (NAMPT activity ≥40%))
12,O=C(NCc1ccc(Cl)cc1)NCc1noc2ccccc12 [E567-0228],No (showed no NAMPT inhibition activity at 20 μM (NAMPT activity ≥40%))
13,COc1ccc(CNC(=O)c2ccc(Cn3c(=O)c4cccn4c4cccnc43)cc2)c(OC)c1 [E524-1754],No (showed no NAMPT inhibition activity at 20 μM (NAMPT activity ≥40%))
14,COc1ccc(Cl)cc1NC(=O)NCc1noc2ccccc12 [E567-0019],No (showed no NAMPT inhibition activity at 20 μM (NAMPT activity ≥40%))
15,COc1ccc(Br)cc1CNC(=O)CCCn1c(=O)c2cccn2c2cccnc21 [E524-1499],No (showed no NAMPT inhibition activity at 20 μM (NAMPT activity ≥40%))
16,Cc1ccc2c(=O)cc(CSc3nnc(-c4ccccc4)n3C)[nH]c2c1C [G751-0753],No (showed no NAMPT inhibition activity at 20 μM (NAMPT activity ≥40%))
17,COc1ccc(OC)c(CCNC(=O)CCCn2c(=O)c3cccn3c3cccnc32)c1 [E524-1470],No (showed no NAMPT inhibition activity at 20 μM (NAMPT activity ≥40%))
18,CN(C)CCNC(=O)c1ccc(Cn2c(=O)c3cccn3c3cccnc32)cc1 [E524-1589],No (showed no NAMPT inhibition activity at 20 μM (NAMPT activity ≥40%))
19,CN(C)c1ccc(CNC(=O)c2ccc(Cn3c(=O)c4cccn4c4cccnc43)cc2)cc1 [E524-1758],No (showed no NAMPT inhibition activity at 20 μM (NAMPT activity ≥40%))
20,Cc1cn2c(=O)cc(COC(=O)c3cccc(NC(=O)C(C)Oc4ccccc4)c3)nc2s1 (stereo not shown) [G357-2118],No (showed no NAMPT inhibition activity at 20 μM (NAMPT activity ≥40%))
